Assay results taken from US10336732B2, “1-heterocyclyl isochromanyl compounds and analogs for treating CNS disorders” (Sunovion Pharmaceuticals Inc., priority 2015, dated 2019).

system: mice; test: Neuropharmacological assay (SmartCube), behavioral signature of compound-treated mice; assay type: in vivo; conditions: i.p. 15 min before behavioral test, most efficacious dose(s) of 3 doses
Text: Neurosci. […] As reported in Roberds, because psychiatric diseases generally result from disorders of cell-cell communication or circuitry, intact systems are useful in detecting improvement in disease-relevant endpoints. These endpoints are typically behavioral in nature, often requiring human observation and interpretation. To facilitate testing of multiple compounds for behavioral effects relevant to psychiatric disease, PsychoGenics, Inc. (Tarrytown, N.Y., “PGI”) developed SmartCube™, an automated system in which behaviors of compound-treated mice are captured by digital video and analyzed with computer algorithms. […] PGI Analytical Systems uses data from SmartCube™ to compare the behavioral signature of a test compound to a database of behavioral signatures obtained using a large set of diverse reference compounds. (The composition of the database as well as validation of the method is further described in Roberds). In this way, the neuropharmacological effects of a test compound can be predicted by similarity to major classes of compounds, such as antipsychotics, anxiolytics and antidepressants.
The SmartCube™ system produces an activity signature indicating the probability that the activity of the test compound at the administered dose matches a given class of neuropharmacological agents. (See, e.g., Roberds, FIGS. 2 and 3). The test compound is simultaneously compared against multiple classes of agents; thus, a separate probability is generated for each behavioral effect measured (e.g., anxiolytic activity, analgesic activity, etc.). In Table 4, these probabilities are reported for each behavioral effect measured as follows:
Provided compounds were dissolved in a mixture of Pharmasolve™ (N-methyl-2-pyrrolidone), polyethylene glycol and propylene glycol, and were injected i.p. 15 min. before the behavioral test. For each compound, injections were administered at 3 different doses. For each behavioral effect measured, results for the most efficacious dose(s) are presented.

SMILES	AD: ADHD (probability that behavioral signature matches class)	AG: analgesic (probability that behavioral signature matches class)	AX: anxiolytic (probability that behavioral signature matches class)	CE: cognitive enhancer (probability that behavioral signature matches class)	DP: anti-depressant (probability that behavioral signature matches class)	HA: hallucinogen (probability that behavioral signature matches class)	MS: mood stabilizer (probability that behavioral signature matches class)	PS: anti-psychotic (probability that behavioral signature matches class)	SD: sedative hypnotic (probability that behavioral signature matches class)	UN: uncharacterized CNS activity (probability that behavioral signature matches class)
Fc1ccc2c(c1)CCO[C@@H]2[C@@H]1CCCCN1 [Compound I-73, (S)-2-((S)-6-fluoroisochroman-1-yl)piperidine]	+ (LOQ ≤ + <5%)	++ (5% ≤ ++ <25%)	++ (5% ≤ ++ <25%)	++ (5% ≤ ++ <25%)	++ (5% ≤ ++ <25%)	+ (LOQ ≤ + <5%)	++ (5% ≤ ++ <25%)	+ (LOQ ≤ + <5%)	+ (LOQ ≤ + <5%)	+++ (25% ≤ +++ <50%)
c1ccc2c(c1)CCCO[C@@H]2[C@H]1CCCN1 [Compound I-99, (R)-2-((S)-1,3,4,5-tetrahydrobenzo[c]oxepin-1-yl)pyrrolidine]	+ (LOQ ≤ + <5%)	++ (5% ≤ ++ <25%)	++ (5% ≤ ++ <25%)	++ (5% ≤ ++ <25%)	+++ (25% ≤ +++ <50%)	+ (LOQ ≤ + <5%)	+ (LOQ ≤ + <5%)	++ (5% ≤ ++ <25%)	++ (5% ≤ ++ <25%)	+ (LOQ ≤ + <5%)
Fc1cccc2c1[C@@H]([C@@H]1CCCN1)OCC2 [Compound I-2, (S)-2-((S)-8-fluoroisochroman-1-yl)pyrrolidine]	+ (LOQ ≤ + <5%)	+ (LOQ ≤ + <5%)	++ (5% ≤ ++ <25%)	+ (LOQ ≤ + <5%)	+ (LOQ ≤ + <5%)	+ (LOQ ≤ + <5%)	++ (5% ≤ ++ <25%)	++ (5% ≤ ++ <25%)	++ (5% ≤ ++ <25%)	+ (LOQ ≤ + <5%)
c1cc2c(c3c1CCO[C@@H]3[C@@H]1CCN1)OCO2 [Compound I-143, (S)-2-((S)-7,9-dihydro-6H-[1,3]dioxolo[4,5-h]isochromen-9-yl)azetidine]	+ (LOQ ≤ + <5%)	++ (5% ≤ ++ <25%)	++ (5% ≤ ++ <25%)	+ (LOQ ≤ + <5%)	++ (5% ≤ ++ <25%)	+ (LOQ ≤ + <5%)	+ (LOQ ≤ + <5%)	++ (5% ≤ ++ <25%)	+ (LOQ ≤ + <5%)	+++ (25% ≤ +++ <50%)
Cc1cccc2c1[C@H]([C@@H]1CCCN1)OCCC2 [Compound I-102, (S)-2-((R)-9-methyl-1,3,4,5-tetrahydrobenzo[c]oxepin-1-yl)pyrrolidine]	+ (LOQ ≤ + <5%)	++ (5% ≤ ++ <25%)	+++ (25% ≤ +++ <50%)	++ (5% ≤ ++ <25%)	++ (5% ≤ ++ <25%)	+ (LOQ ≤ + <5%)	++ (5% ≤ ++ <25%)	++ (5% ≤ ++ <25%)	+ (LOQ ≤ + <5%)	+ (LOQ ≤ + <5%)
CC1(C)Cc2ccccc2[C@H]([C@@H]2CCCN2)O1 [Compound I-66, (S)-2-((R)-3,3-dimethylisochroman-1-yl)pyrrolidine]	+ (LOQ ≤ + <5%)	++ (5% ≤ ++ <25%)	++ (5% ≤ ++ <25%)	++ (5% ≤ ++ <25%)	++ (5% ≤ ++ <25%)	+ (LOQ ≤ + <5%)	+ (LOQ ≤ + <5%)	+++ (25% ≤ +++ <50%)	+ (LOQ ≤ + <5%)	++ (5% ≤ ++ <25%)
COc1cccc2c1[C@H]([C@H]1CCCN1)OCC2 [Compound I-49, (R)-2-((R)-8-methoxyisochroman-1-yl)pyrrolidine]	+ (LOQ ≤ + <5%)	++ (5% ≤ ++ <25%)	++ (5% ≤ ++ <25%)	++ (5% ≤ ++ <25%)	++ (5% ≤ ++ <25%)	+ (LOQ ≤ + <5%)	++ (5% ≤ ++ <25%)	++ (5% ≤ ++ <25%)	++ (5% ≤ ++ <25%)	++ (5% ≤ ++ <25%)
Fc1ccc2c(c1)CO[C@H]2[C@H]1CCCN1 [Compound I-121, (R)-2-((R)-5-fluoro-1,3-dihydroisobenzofuran-1-yl)pyrrolidine]	+ (LOQ ≤ + <5%)	+++ (25% ≤ +++ <50%)	+++ (25% ≤ +++ <50%)	++ (5% ≤ ++ <25%)	++ (5% ≤ ++ <25%)	+ (LOQ ≤ + <5%)	+ (LOQ ≤ + <5%)	++ (5% ≤ ++ <25%)	++ (5% ≤ ++ <25%)	++ (5% ≤ ++ <25%)
CC1(C)CN[C@@H]([C@H]2OCCc3ccccc32)C1 [Compound I-62, (R)-2-((S)-isochroman-1-yl)-4,4-dimethylpyrrolidine]	+ (LOQ ≤ + <5%)	++ (5% ≤ ++ <25%)	++ (5% ≤ ++ <25%)	+++ (25% ≤ +++ <50%)	++ (5% ≤ ++ <25%)	+ (LOQ ≤ + <5%)	+ (LOQ ≤ + <5%)	++ (5% ≤ ++ <25%)	+ (LOQ ≤ + <5%)	+ (LOQ ≤ + <5%)
c1ccc(-c2ccc3c(c2)CCO[C@H]3[C@@H]2CCCN2)nc1 [Compound I-58, 2-((R)-1-((S)-pyrrolidin-2-yl)isochroman-6-yl)pyridine]	+ (LOQ ≤ + <5%)	++ (5% ≤ ++ <25%)	++ (5% ≤ ++ <25%)	+ (LOQ ≤ + <5%)	+++ (25% ≤ +++ <50%)	+ (LOQ ≤ + <5%)	++ (5% ≤ ++ <25%)	++ (5% ≤ ++ <25%)	+ (LOQ ≤ + <5%)	+ (LOQ ≤ + <5%)

same assay, conditions: i.p. 15 min before behavioral test, most efficacious dose(s) of 3 doses

SMILES	XG: anxiogenic (probability that behavioral signature matches class)
Fc1ccc2c(c1)CCO[C@@H]2[C@@H]1CCCCN1 [Compound I-73, (S)-2-((S)-6-fluoroisochroman-1-yl)piperidine]	+ (LOQ ≤ + <5%)
c1ccc2c(c1)CCCO[C@@H]2[C@H]1CCCN1 [Compound I-99, (R)-2-((S)-1,3,4,5-tetrahydrobenzo[c]oxepin-1-yl)pyrrolidine]	+ (LOQ ≤ + <5%)
Fc1cccc2c1[C@@H]([C@@H]1CCCN1)OCC2 [Compound I-2, (S)-2-((S)-8-fluoroisochroman-1-yl)pyrrolidine]	+ (LOQ ≤ + <5%)
c1cc2c(c3c1CCO[C@@H]3[C@@H]1CCN1)OCO2 [Compound I-143, (S)-2-((S)-7,9-dihydro-6H-[1,3]dioxolo[4,5-h]isochromen-9-yl)azetidine]	+ (LOQ ≤ + <5%)
Cc1cccc2c1[C@H]([C@@H]1CCCN1)OCCC2 [Compound I-102, (S)-2-((R)-9-methyl-1,3,4,5-tetrahydrobenzo[c]oxepin-1-yl)pyrrolidine]	+ (LOQ ≤ + <5%)
CC1(C)Cc2ccccc2[C@H]([C@@H]2CCCN2)O1 [Compound I-66, (S)-2-((R)-3,3-dimethylisochroman-1-yl)pyrrolidine]	+ (LOQ ≤ + <5%)
COc1cccc2c1[C@H]([C@H]1CCCN1)OCC2 [Compound I-49, (R)-2-((R)-8-methoxyisochroman-1-yl)pyrrolidine]	+ (LOQ ≤ + <5%)
Fc1ccc2c(c1)CO[C@H]2[C@H]1CCCN1 [Compound I-121, (R)-2-((R)-5-fluoro-1,3-dihydroisobenzofuran-1-yl)pyrrolidine]	+ (LOQ ≤ + <5%)
CC1(C)CN[C@@H]([C@H]2OCCc3ccccc32)C1 [Compound I-62, (R)-2-((S)-isochroman-1-yl)-4,4-dimethylpyrrolidine]	+ (LOQ ≤ + <5%)
c1ccc(-c2ccc3c(c2)CCO[C@H]3[C@@H]2CCCN2)nc1 [Compound I-58, 2-((R)-1-((S)-pyrrolidin-2-yl)isochroman-6-yl)pyridine]	+ (LOQ ≤ + <5%)
